Test results from publication PMC12298827, “Subchronic Toxicities of Four Per- and Polyfluoroalkyl Substances (PFASs) by Oral Exposure in Sprague–Dawley Rats” (Toxics, 2025).

Tested on: male and female Sprague–Dawley rats
Experiment: 90-day subchronic oral gavage toxicity study
Format: in vivo, rat
Conditions: male
Protocol: Subchronic (90-day) studies were performed in accordance with current U.S. EPA’s Toxic Substances Control Act Good Laboratory Practice (GLP) Standards, with the following two general exceptions to the GLP guidelines: Analysis of the dose formulations was conducted according to RTI-approved Standard Operating Procedures, and corn oil (the vehicle) was not characterized (certificate of analysis from the vendor is available in the appendices to the final reports). Male and female Sprague–Dawley rats (five dose levels plus a control, n = 10/sex/dose group, corn oil vehicle dose volume of 3 mL/kg; oral gavage) were used in these studies, and the rats were euthanized on SD 91. The dose levels for PFHI were 0, 12.5, 25, 50, 100, and 200 mg/kg-day. The dose levels for MHFPK were 0, 18.8, 37.5, 75, 150, and 300 mg/kg-day. The dose levels for PFNAC were 0, 0.1, 0.3, 1.0, 3.0, and 10 mg/kg-day for male rats and 0, 0.3, 1.0, 3.0, 10, and 30 mg/kg-day for female rats. For CTFPA, the dose levels were 0, 1.9, 3.8. 7.5, 15, and 30 mg/kg-day for male rats and 0, 6.3, 12.5, 25, 50, and 100 mg/kg-day for female rats. For each PFAS, three batches of dosing solution were prepared. The time between the batch preparation of the dosing solutions ranged between 29 and 39 days. Blood samples were collected from all the rats at termination for serum chemistry, hematology, coagulation, and the analysis of the parent PFAS chemical in the plasma. In vivo data collection and further detail on the endpoints examined postmortem are described below.
The rats were observed twice daily for morbidity and mortality throughout the study period. At least once prior to randomization to test groups and weekly thereafter, the rats were physically examined, and bodyweights were obtained. Feed consumption was quantified weekly starting on SD 1.
Neurotoxicity was evaluated using the functional observational battery (FOB) and measuring locomotor activity (LMA) 2–4 h post dosing on SDs 78–80 and 80–84, respectively. For both the 14- and 90-day studies, an ophthalmologic examination was conducted prior to randomization and near the end of the study, using indirect ophthalmoscopy and slit–lamp biomicroscopy (as needed) after the administration of a mydriatic solution.
Hematology, biochemistry, and coagulation endpoints were measured at the termination of the study. A Siemens Advia 2120i hematology analyzer (Siemens Healthineers, Erlangen, Germany) was used to measure (or calculate) the parameters related to the complete blood count, leukocyte differential count, and reticulocyte count. The hematology parameters are listed and described in Table 2. The prothrombin time […] and activated partial thromboplastin time (APTT) were measured using an Instrumentation Laboratory (Bedford, MA, USA) ACL Elite Pro coagulation analyzer (laser–nephelometric centrifugal method).
At necropsy, the rats were visually examined for external abnormalities and organ weights (absolute and relative to the BW and brain weight), which were recorded (paired organs weighed together). The tissues were preserved in 10% neutral buffered formalin (NBF), except for the ocular tissues, testes, and epididymides, which were preserved in modified Davidson’s fixative and later transferred to 10% NBF. Bone marrow smears were prepared from the femurs, and the slides were air-dried, fixed in methanol, stained, and stored at room temperature for possible future evaluation. The preserved tissues were embedded in paraffin, sectioned, stained with hematoxylin and eosin, and examined by a board-certified veterinary pathologist.
Statistical analysis was performed using Provantis™ Version 10 or greater (Instem LSS, Limited; Stone, Staffordshire, UK). Differences among the treatment groups compared to the control were evaluated using one-way analysis of variance (ANOVA) if the underlying assumptions of a normal distribution (Shapiro–Wilk test) and the homogeneity of the variance (Levene’s test) were satisfied. […]

Compound: C=CC(=O)OCC(F)(F)C(F)(F)C(F)(F)C(F)(F)C(F)(F)C(F)(F)C(F)(F)C(F)F [PFNAC, 1H,1H,9H-Perfluorononyl acrylate]
- % Diff, Total Food Consumed (1.0 mg/kg-day): 6.25%
- A/G (1.0 mg/kg-day): 1.11±0.09 ratio
- ABNEUT (1.0 mg/kg-day): 2.627±0.787 K/µL
- ABRETi (1.0 mg/kg-day): 186.29±26.35 10^9/L
- ABSEOS (1.0 mg/kg-day): 0.097±0.026 K/µL
- ALB (1.0 mg/kg-day): 3.99 ± 0.25 g/dL
- ALPi (1.0 mg/kg-day): 327.4±48.9 U/L
- APTT (1.0 mg/kg-day): 12.70 s
- BUN (1.0 mg/kg-day): 20.4 ± 2.6 mg/dL
- CHOL (1.0 mg/kg-day): 62.6 ± 7.6 mg/dL
- GLOB (1.0 mg/kg-day): 3.59 ± 0.18 g/dL
- GLUC (1.0 mg/kg-day): 126.1 ± 10.3 mg/dL
- HCT (1.0 mg/kg-day): 45.42±2.38%
- HGB (1.0 mg/kg-day): 13.91 ± 0.69 g/dL
- Kidney Weight (1.0 mg/kg-day): 3.57 g
- Kidney/Body Weight (1.0 mg/kg-day): 0.61%
- Kidney/Brain Weight (1.0 mg/kg-day): 164%
- Liver Weight (1.0 mg/kg-day): 20.59 g
- Liver/Body Weight (1.0 mg/kg-day): 3.48%
- Liver/Brain Weight (1.0 mg/kg-day): 949%
- MPV (1.0 mg/kg-day): 7.90 ± 0.61 fL
- PT (1.0 mg/kg-day): 15.56 s
- RBC (1.0 mg/kg-day): 8.519±0.467 M/µL
- Total BW change (1.0 mg/kg-day): 314.97 g
- Total Food Consumed (1.0 mg/kg-day): 2357 g
- % BW Gain (3.0 mg/kg-day): 89.59%
- % Diff, % BW Gain (3.0 mg/kg-day): -11.27%
- % Diff, Total BW change (3.0 mg/kg-day): -11.64%
- % Diff, Total Food Consumed (3.0 mg/kg-day): 7.33%
- A/G (3.0 mg/kg-day): 1.18±0.10 ratio
- ABNEUT (3.0 mg/kg-day): 2.351±0.464 K/µL
- ABRETi (3.0 mg/kg-day): 190.46±33.42 10^9/L
- ABSEOS (3.0 mg/kg-day): 0.095±0.043 K/µL
- ALB (3.0 mg/kg-day): 4.10 ± 0.25 g/dL
- ALPi (3.0 mg/kg-day): 286.4±30.8 U/L
- APTT (3.0 mg/kg-day): 12.24 s
- BUN (3.0 mg/kg-day): 22.6 ± 3.6 mg/dL
- CHOL (3.0 mg/kg-day): 68.5 ± 12.2 mg/dL
- GLOB (3.0 mg/kg-day): 3.48 ± 0.13 g/dL
- GLUC (3.0 mg/kg-day): 126.8 ± 13.8 mg/dL
- HCT (3.0 mg/kg-day): 46.18±2.11%
- HGB (3.0 mg/kg-day): 14.09 ± 0.70 g/dL
- Kidney Weight (3.0 mg/kg-day): 3.57 g
- Kidney/Body Weight (3.0 mg/kg-day): 0.65%
- Kidney/Brain Weight (3.0 mg/kg-day): 164%
- Liver Weight (3.0 mg/kg-day): 20.96 g
- Liver/Body Weight (3.0 mg/kg-day): 3.81%
- Liver/Brain Weight (3.0 mg/kg-day): 966%
- MPV (3.0 mg/kg-day): 7.79 ± 0.43 fL
- PT (3.0 mg/kg-day): 14.98 s
- RBC (3.0 mg/kg-day): 8.351±0.354 M/µL
- Total BW change (3.0 mg/kg-day): 266.69 g
- Total Food Consumed (3.0 mg/kg-day): 2381 g
- % BW Gain (10 mg/kg-day): 80.97%
- % Diff, % BW Gain (10 mg/kg-day): -19.80%
- % Diff, Total BW change (10 mg/kg-day): -20.93%
- % Diff, Total Food Consumed (10 mg/kg-day): 2.34%
- A/G (10 mg/kg-day): 1.15±0.10 ratio
- ABNEUT (10 mg/kg-day): 2.413±0.948 K/µL
- ABRETi (10 mg/kg-day): 172.74±32.27 10^9/L
- ABSEOS (10 mg/kg-day): 0.101±0.025 K/µL
- ALB (10 mg/kg-day): 3.90 ± 0.20 g/dL
- ALPi (10 mg/kg-day): 315.8±44.0 U/L
- APTT (10 mg/kg-day): 12.57 s
- BUN (10 mg/kg-day): 22.4 ± 2.6 mg/dL
- CHOL (10 mg/kg-day): 68.0 ± 15.7 mg/dL
- GLOB (10 mg/kg-day): 3.39 ± 0.19 g/dL
- GLUC (10 mg/kg-day): 122.6 ± 10.8 mg/dL
- HCT (10 mg/kg-day): 44.76±2.84%
- HGB (10 mg/kg-day): 13.84 ± 0.78 g/dL
- Kidney Weight (10 mg/kg-day): 3.53 g
- Kidney/Body Weight (10 mg/kg-day): 0.69%
- Kidney/Brain Weight (10 mg/kg-day): 170%
- Liver Weight (10 mg/kg-day): 21.12 g
- Liver/Body Weight (10 mg/kg-day): 4.16%
- Liver/Brain Weight (10 mg/kg-day): 1016%
- MPV (10 mg/kg-day): 7.66 ± 0.42 fL
- PT (10 mg/kg-day): 15.81 s
- RBC (10 mg/kg-day): 8.118±0.277 M/µL
- Total BW change (10 mg/kg-day): 238.64 g
- Total Food Consumed (10 mg/kg-day): 2270 g
